Assays:
[1] = molecular target: T1, Tec kinase (Homo sapiens, UniProt P42680); test: Tec Kinase Activity Assay; format: biochemical; conditions: test concentration not given
T1 sequence (P42680 1-631): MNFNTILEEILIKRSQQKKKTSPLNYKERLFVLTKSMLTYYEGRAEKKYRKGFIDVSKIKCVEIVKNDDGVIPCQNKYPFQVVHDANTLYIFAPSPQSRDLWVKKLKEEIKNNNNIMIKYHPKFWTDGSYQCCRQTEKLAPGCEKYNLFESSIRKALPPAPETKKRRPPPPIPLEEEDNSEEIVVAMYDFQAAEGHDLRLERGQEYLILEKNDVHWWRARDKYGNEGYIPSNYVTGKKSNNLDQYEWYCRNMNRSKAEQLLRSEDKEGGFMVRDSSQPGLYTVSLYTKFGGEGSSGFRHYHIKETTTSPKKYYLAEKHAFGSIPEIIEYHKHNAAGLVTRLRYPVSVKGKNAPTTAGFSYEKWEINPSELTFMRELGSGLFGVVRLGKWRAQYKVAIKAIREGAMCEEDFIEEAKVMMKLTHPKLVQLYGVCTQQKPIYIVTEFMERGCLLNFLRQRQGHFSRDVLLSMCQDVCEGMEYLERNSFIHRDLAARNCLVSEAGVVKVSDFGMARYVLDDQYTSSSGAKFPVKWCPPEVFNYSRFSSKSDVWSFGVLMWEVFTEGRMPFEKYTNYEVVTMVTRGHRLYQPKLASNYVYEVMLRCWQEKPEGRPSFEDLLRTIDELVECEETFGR
Experimental: Tec Kinase Activity Assay
(§1) The disclosed compounds were assayed for their ability to inhibit the activity of Tec kinase. Nunc Maxisorb plates were coated with streptavidin by overnight incubation with 100 μL per well of 1 μg/mL Streptavidin in DPBS. Prior to the start of the experiment, the plates were washed with TBST (3×200 μL) and blocked for at least 1 hour by adding 150 μL of 5% BSA/TBST. The plates were washed with TBST (3×200 μL/well) and left dry immediately before the capture step.
The test articles and controls (Staurosporine and Sutent) were prepared using the following assay buffer at 3× desired final concentration (50 mM Tris-HCl, 0.02 mg/mL BSA, 10 mM MgCl2, 0.1 mM Na3VO4, 1 mM EGTA, 75 μM ATP0.01% NP-40, 2 mM DTT in 10% glycerol/water). In a reaction plate were added rapidly 20 μL test article (or control) and 20 μL TEC 0.25 ng/μL. The plate was incubated for 30 minutes. To the reaction plate was added 20 μL of Pyk-2 0.5 ng/μL. The plate was incubated at room temperature for two hours.
(§2) From the reaction plate, 50 μL was transferred to the streptavidin coated plate. The capture plate was incubated at room temperature for 30 minutes then washed 6× with TBST. To the capture plate was added 100 μL/well of Cell Signaling anti-phospho tyrosine at a dilution of 1:3000 in 2% BSA/TBST. The plate was incubated for one hour at room temperature then washed 6× with TBST. To the capture plate was added 100 μL/well of Alkaline Phosphatase Tagged Goat anti Mouse Antibody at a dilution of 1:4000 in 2% BSA/TBST. The plate was incubated for one hour at room temperature then washed 6× with TBST. The fluorescent readout was initiated by the addition of 100 μL/well of Attophos reagent (6 mg/10 mL). The reading was done on the Perkin Elmer Envision system.

[2] = molecular target: RET kinase (Homo sapiens, UniProt P07949); test: RET Kinase Activity Assay; format: biochemical; conditions: test concentration not given
Chain of RET kinase (P07949 29-1114): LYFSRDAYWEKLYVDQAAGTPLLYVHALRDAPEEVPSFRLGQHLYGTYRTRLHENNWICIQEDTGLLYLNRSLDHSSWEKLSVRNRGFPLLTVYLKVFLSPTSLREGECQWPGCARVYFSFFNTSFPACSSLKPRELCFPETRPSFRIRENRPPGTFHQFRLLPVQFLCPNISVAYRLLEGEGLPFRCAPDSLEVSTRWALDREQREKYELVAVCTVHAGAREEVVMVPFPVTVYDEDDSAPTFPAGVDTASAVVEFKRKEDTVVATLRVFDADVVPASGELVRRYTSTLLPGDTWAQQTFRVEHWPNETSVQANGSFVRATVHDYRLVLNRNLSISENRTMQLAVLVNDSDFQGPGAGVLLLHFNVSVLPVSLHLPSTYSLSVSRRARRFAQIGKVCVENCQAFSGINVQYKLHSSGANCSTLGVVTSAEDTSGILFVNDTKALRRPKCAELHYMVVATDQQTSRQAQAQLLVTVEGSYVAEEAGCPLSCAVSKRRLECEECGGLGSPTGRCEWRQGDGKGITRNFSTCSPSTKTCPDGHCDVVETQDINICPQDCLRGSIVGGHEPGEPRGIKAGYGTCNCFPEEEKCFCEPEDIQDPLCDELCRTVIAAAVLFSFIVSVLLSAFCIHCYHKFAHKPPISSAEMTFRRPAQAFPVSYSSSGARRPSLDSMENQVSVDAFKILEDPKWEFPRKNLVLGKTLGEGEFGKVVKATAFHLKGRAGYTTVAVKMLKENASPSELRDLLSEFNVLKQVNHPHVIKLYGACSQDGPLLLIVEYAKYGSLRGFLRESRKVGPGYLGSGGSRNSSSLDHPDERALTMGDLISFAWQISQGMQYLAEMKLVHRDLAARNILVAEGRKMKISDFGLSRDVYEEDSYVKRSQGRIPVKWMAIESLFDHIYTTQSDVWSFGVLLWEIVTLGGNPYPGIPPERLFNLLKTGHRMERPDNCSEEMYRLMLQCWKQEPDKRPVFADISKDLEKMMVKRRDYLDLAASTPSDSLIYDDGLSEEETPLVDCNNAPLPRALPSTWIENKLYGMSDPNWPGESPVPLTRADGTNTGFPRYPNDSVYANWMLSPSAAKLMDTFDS
Experimental: RET Kinase Activity Assay
as §1, with “RET” for “Tec”, “Maxwasorb” for “Maxisorb”
The test articles and controls (Staurosporine and Sutent) were prepared using the following assay buffer at 3× desired final concentration (50 mM […], 0.02 mg/mL BSA, 10 mM MgCl2, 0.1 mM Na3VO4, 1 mM EGTA, 75 μM ATP0.01% NP-40, 2 mM DTT in 10% glycerol/water). In a reaction plate, were added rapidly 20 μL test article (or control) and 20 μL RET (0.25 ng/μL final concentration). The plate was incubated for 15 minutes. To the reaction plate was added 20 μL of Pyk-2 (0.25 ng/μL final concentration). The plate was incubated at room temperature for one hour.
as §2, with “Envwasion” for “Envision”

[3] = system: DLD-1 cancer cells; test: MTS Assay; format: cell-based; conditions: Homo sapiens, DLD-1 cells, 72 h
Experimental: Cells were maintained at 37° C., 5% CO2 in DMEM media supplemented with 1% fetal bovine serum, penicillin/streptomycin and fungizone (Invitrogen). Cells were seeded into 96-well tissue culture plates at 3000 per well and cultured at 37° C. for 18 hours. Test compounds were dissolved and diluted to 300× in DMSO then diluted 1:40 in DMEM. Cells were incubated with test compounds for 72 hours followed by incubation with tetrazolium compound (3-(4,5-dimethylthiazol-2-yl)-5-(3-carboxymethoxyphenyl)-2-(4-sulfophenyl)-2H-tetrazolium, inner salt; MTS) and the electron coupling reagent, phenazine methosulfate (PMS) for 4 hours. […] The ability of compounds to inhibit cell growth in this assay is correlated with the reduction of dehydrogenase enzyme activity found in metabolically active cells. The measurement of the absorbance of the formazan was assessed using a Victor (Perkin Elmer) microplate reader at 492 nm. The calculated IC50 value is the concentration of the test compound that causes a 50% decrease in the absorbance.

Kinase Activity (Tec kinase inhibition) [1] | Kinase Activity (RET kinase inhibition) [2] | Structure (SMILES) | inhibition at 10 µM [3] [%]
B (B indicates 50-75% inhibition) | B (B indicates 50-75% inhibition) | c1ccc(Oc2ccccc2-c2cnc3nnc(-c4ccncc4)n3c2)cc1 [Compound 5, 6-(2-phenoxyphenyl)-3-(pyridin-4-yl)-[1,2,4]triazolo[4,3-a]pyrimidine] | 13
A (A indicates 75-100% inhibition) | A (A indicates 75-100% inhibition) | c1ccc(Oc2ccc(-c3cnc4nnc(-c5ccncc5)n4c3)cc2)cc1 [Compound 6, 6-(4-phenoxyphenyl)-3-(pyridin-4-yl)-[1,2,4]triazolo[4,3-a]pyrimidine] | –
A (A indicates 75-100% inhibition) | A (A indicates 75-100% inhibition) | CS(=O)(=O)c1ccc(-c2nnc3ncc(-c4ccc(Oc5ccccc5)cc4)cn23)cc1 [Compound 7, 3-(4-(methylsulfonyl)phenyl)-6-(4-phenoxyphenyl)-[1,2,4]triazolo[4,3-a]pyrimidine] | 98
– | A (A indicates 75-100% inhibition) | Cc1ccc(-c2cnc3nnc(-c4ccc(S(C)(=O)=O)cc4)n3c2)c2ccccc12 [Compound 10, 6-(4-methylnaphthalen-1-yl)-3-(4-(methylsulfonyl)phenyl)-[1,2,4]triazolo[4,3-a]pyrimidine] | –
– | A (A indicates 75-100% inhibition) | CS(=O)(=O)c1ccc(-c2nnc3ncc(-c4ccccc4Oc4ccccc4)cn23)cc1 [Compound 11, 3-(4-(methylsulfonyl)phenyl)-6-(2-phenoxyphenyl)-[1,2,4]triazolo[4,3-a]pyrimidine] | –

Second part, the compound before the results:

Structure (SMILES) | Kinase Activity (Tec kinase inhibition) [1] | Kinase Activity (RET kinase inhibition) [2] | inhibition at 10 µM [3] [%]
Brc1cnc2nnc(-c3ccccc3)n2c1 [Compound 1, 6-bromo-3-phenyl-[1,2,4]triazolo[4,3-a]pyrimidine] | A (A indicates 75-100% inhibition) | – | –
Brc1cnc2nnc(-c3ccc(-c4cccnc4)cc3)n2c1 [Compound 2, 6-bromo-3-(4-(pyridin-3-yl)phenyl)-[1,2,4]triazolo[4,3-a]pyrimidine] | B (B indicates 50-75% inhibition) | – | –
c1ccc(-c2nnc3ncc(-c4cccc5[nH]ccc45)cn23)cc1 [Compound 3, 6-(1H-indol-4-yl)-3-phenyl-[1,2,4]triazolo[4,3-a]pyrimidine] | A (A indicates 75-100% inhibition) | A (A indicates 75-100% inhibition) | 98
c1cc(-c2cnc3nnc(-c4ccncc4)n3c2)c2cc[nH]c2c1 [Compound 4, 6-(1H-indol-4-yl)-3-(pyridin-4-yl)-[1,2,4]triazolo[4,3-a]pyrimidine] | – | A (A indicates 75-100% inhibition) | –
COc1ccc(-c2cnc3nnc(-c4ccc(CC(C)C)cc4)n3c2)cc1 [Compound 8, 3-(4-isobutylphenyl)-6-(4-methoxyphenyl)-[1,2,4]triazolo[4,3-a]pyrimidine] | B (B indicates 50-75% inhibition) | – | 74
CC(C)(C)c1ccc(-c2cnc3nnc(-c4ccc(C#N)cc4)n3c2)cc1 [Compound 9, 4-(6-(4-tert-butylphenyl)-[1,2,4]triazolo[4,3-a]pyrimidin-3-yl)benzonitrile] | B (B indicates 50-75% inhibition) | A (A indicates 75-100% inhibition) | 39

Source: patent US8343977B2, “Substituted triazolo-pyrimidine compounds” (ArQule, Inc., priority 2009, dated 2013)
